Results reported in ChEMBL document CHEMBL5108026, “An overview on Estrogen receptors signaling and its ligands in breast cancer” (Eur J Med Chem, 2022).
pEC50, pIC50, pKi: −log10 of the molar value.

Legend:
Estrogen receptor beta [1] = target: T1, Estrogen receptor beta (Homo sapiens, UniProt Q92731); test: Agonist activity at human ER-beta transfected in African green monkey COS-7 cells measured after 24 hrs by Steady-Glo luciferase assay; assay type: cell-based
Aromatase = target: T2, Aromatase (Rattus norvegicus, UniProt P22443); test: Inhibition of aromatase in rat mammary tumor; assay type: tissue-based, Mammary gland
T2 sequence (P22443 whole entry): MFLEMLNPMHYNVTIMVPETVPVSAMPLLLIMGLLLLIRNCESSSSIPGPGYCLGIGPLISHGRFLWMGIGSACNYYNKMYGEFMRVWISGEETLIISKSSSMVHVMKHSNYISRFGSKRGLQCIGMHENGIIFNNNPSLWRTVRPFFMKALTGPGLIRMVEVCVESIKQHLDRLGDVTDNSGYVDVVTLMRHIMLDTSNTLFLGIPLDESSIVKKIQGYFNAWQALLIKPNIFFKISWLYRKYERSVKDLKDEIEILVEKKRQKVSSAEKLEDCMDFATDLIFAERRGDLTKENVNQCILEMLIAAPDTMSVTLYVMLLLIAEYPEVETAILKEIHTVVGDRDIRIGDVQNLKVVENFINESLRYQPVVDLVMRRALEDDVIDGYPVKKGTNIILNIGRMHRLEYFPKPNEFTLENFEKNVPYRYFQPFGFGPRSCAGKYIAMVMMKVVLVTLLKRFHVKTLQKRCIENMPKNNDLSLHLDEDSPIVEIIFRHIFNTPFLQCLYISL

Estrogen receptor = target: T3, Estrogen receptor (Homo sapiens, UniProt P03372); test: Modulation of ER-alpha (unknown origin)
T3 sequence (P03372 whole entry): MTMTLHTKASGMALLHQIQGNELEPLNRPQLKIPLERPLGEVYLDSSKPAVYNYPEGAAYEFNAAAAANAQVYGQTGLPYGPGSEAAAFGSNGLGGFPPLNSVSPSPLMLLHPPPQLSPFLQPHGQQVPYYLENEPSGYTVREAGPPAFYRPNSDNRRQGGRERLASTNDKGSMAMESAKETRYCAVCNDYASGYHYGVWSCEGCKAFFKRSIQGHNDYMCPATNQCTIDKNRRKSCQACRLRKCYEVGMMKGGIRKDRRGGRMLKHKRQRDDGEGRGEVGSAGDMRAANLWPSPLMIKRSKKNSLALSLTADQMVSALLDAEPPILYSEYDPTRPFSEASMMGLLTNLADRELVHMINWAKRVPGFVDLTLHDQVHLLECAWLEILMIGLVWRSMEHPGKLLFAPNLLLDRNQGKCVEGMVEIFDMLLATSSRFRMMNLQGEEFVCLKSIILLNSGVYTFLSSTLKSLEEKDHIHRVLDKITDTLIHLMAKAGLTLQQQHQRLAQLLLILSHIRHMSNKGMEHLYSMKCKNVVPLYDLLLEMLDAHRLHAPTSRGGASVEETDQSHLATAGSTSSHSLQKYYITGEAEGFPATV

Estrogen receptor beta [2] = target: T1, Estrogen receptor beta; test: Modulation of ER-beta (unknown origin)
Estrogen receptor beta [3] = target: T1, Estrogen receptor beta; test: Displacement of EL red from human full-length ER-beta expressed in baculovirus expression system incubated for 2 hrs by fluorescence polarization assay
MCF7 = test: Antiproliferative activity against human MCF7 cells assessed as inhibition of cell growth; assay type: functional, cell-based

T1 sequence (Q92731 whole entry): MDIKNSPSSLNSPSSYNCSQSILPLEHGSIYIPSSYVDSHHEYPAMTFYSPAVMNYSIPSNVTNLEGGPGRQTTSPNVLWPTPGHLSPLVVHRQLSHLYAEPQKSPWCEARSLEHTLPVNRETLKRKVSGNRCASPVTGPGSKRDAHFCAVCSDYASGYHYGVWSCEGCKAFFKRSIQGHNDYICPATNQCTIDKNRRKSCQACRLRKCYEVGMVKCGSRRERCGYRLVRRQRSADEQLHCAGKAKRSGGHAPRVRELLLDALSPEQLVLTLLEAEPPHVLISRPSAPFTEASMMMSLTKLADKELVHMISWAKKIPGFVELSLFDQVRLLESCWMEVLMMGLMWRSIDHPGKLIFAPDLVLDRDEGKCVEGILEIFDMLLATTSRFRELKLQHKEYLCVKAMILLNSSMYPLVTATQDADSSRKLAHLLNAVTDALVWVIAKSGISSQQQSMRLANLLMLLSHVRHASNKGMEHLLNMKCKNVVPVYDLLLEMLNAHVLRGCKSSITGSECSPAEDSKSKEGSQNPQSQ

## CCOC(=O)C1(C(C)=O)Cc2ccc([C@]3(O)CC[C@H]4[C@@H]5CCc6cc(O)ccc6[C@H]5CC[C@@]43C)cc2C1 (stereo partly specified)
Estrogen receptor beta [1]
  pEC50: 8.74

## C[C@]12C=CC(=O)C=C1C[C@@H](Sc1ccc(N)cc1)[C@@H]1[C@@H]2CC[C@]2(C)C(=O)CC[C@@H]12
Aromatase
  pKi: 7.74

## C[C@]12CC[C@@H]3c4ccc(O)cc4CC[C@H]3[C@@H]1C[C@H]1OC(=O)C[C@]12O
Estrogen receptor
  pEC50: 10.85
Estrogen receptor beta [2]
  pEC50: 7.64

## Oc1ccc([C@H]2COc3cc(O)ccc3C2)cc1 [AUS-131]
Estrogen receptor beta [3]
  pIC50: 5.25

## C[C@]12CC[C@@H]3c4ccc(O)cc4C[C@@H](CCCCCCCCC[S+]([O-])CCCC(F)(F)C(F)(F)F)[C@H]3[C@@H]1CC[C@@H]2O (stereo partly specified) [FULVESTRANT]
MCF7
  pIC50: 9.54
